Results taken from patent US20100003217A1, “Compounds and Pharmaceutical Compositions for the Treatment of Viral Infections” (priority 2008, published 2010).
“And” between values parts separate entries of the source, which are not always exact repeats. Identical values can stand only once.

Key:
[1] = tested on: human primary hepatocytes; assay: Metabolic disposition of [^14C]-Compound 1 and [^14C]-2′-C-methyl guanosine in human primary hepatocytes (incubation medium, cellular extracts, nucleotide levels); format: in vitro ADME; conditions: for Major metabolites observed in cellular extracts (% of total radioactivity): human hepatocytes Hu775, 1 μM [^14C]-2′-C-methyl guanosine
Experimental: Primary hepatocytes: Freshly isolated cells from animal and human liver were obtained in suspension on ice. Cells were pelleted by centrifugation at 70-75×g (rat) or 95-90×g (monkey and human) and resuspended at 0.8 million cells per mL of platting medium (William's E supplemented with 5% FBS, 0.5% penicillin-streptomycin, 1% L-glutamine, 4 μg/mL insulin and 1 μM dexamethasone). Multi-well collagen I-coated plates (rat tail collagen type I; 12- or 6-well) were then seeded by addition of 1 mL (12-well; 0.8 million cells/well) or 2 mL (6-well; 1.6 million cells/well) of cell suspension. The plates were gently shaken to evenly distribute the cells and placed in an incubator at 37° C. for approximately 4 to 6 hours to allow cells to attach. Once cells were attached, the platting medium was removed and replaced with hepatocyte culture medium (William's E supplemented with penicillin-streptomycin, 1% L-glutamine, 1% insulin-transferrin-selenium and 0.1 μM dexamethasone). Cells were left overnight in an incubator at 37° C. to acclimatize to culture and the medium.
Hepatocyte incubations with radiolabeled Compound 1 and 2′-C-methyl guanosine, both labeled in the C-8 position of the guanine moiety, were conducted at a final volume of 2.0 mL hepatocyte culture medium/well ([…]). Culture medium from overnight incubation of cells was removed and replaced with fresh medium, pre-warmed to 37° C., containing 1 or 10 μM [^14C]-Compound 1 ([…]) or [^14C]-2′-C-methyl guanosine (127 DPM/μmol) from a stock solution in DMSO (final DMSO concentration was 0.1%) or 50% ethanol (final ethanol concentration was 0.2%). After 1, 4, 8 and 24 hours, 0.5-1.0 mL of incubation medium was removed and stored at −20° C. until analysis (described below). The remaining medium was discarded and cell monolayers were carefully washed two times with ice-cold PBS. Following the last wash, all PBS was carefully removed and 1.0 mL of extraction solution (ice-cold 70% methanol) added. Cells were scrapped off and suspended in the extraction solution, transferred to 2 mL polypropylene microfuge tubes and intracellular contents extracted overnight at −20° C.
Preliminary identification of putative metabolites was conducted by comparing the retention time of observed metabolites in incubation medium and cellular extracts with retention times obtained with chemically synthesized standards using the chromatography conditions described below. Further identification of 2′-C-methyl guanosine nucleotides (mono-, di- and triphosphate) was carried out by incubating cellular extract samples with alkaline phosphatase (10 units for 60 min at 37° C.) and comparing the HPLC retention times of the resulting nucleosides with that of authentic 2′-C-methyl guanosine.
Cellular extracts were prepared by centrifugation at 16,000 RCF using an Eppendorf microcentrifuge (Eppendorf, Model 5415D) for 10 min to remove cellular debris. An aliquot of 5-10 μL of the supernatant was added to 5 mL of EcoLite™ (MP, Irvine, Calif.) liquid scintillation cocktail and radioactivity measured by liquid scintillation counting (LSC) using a Beckman Coulter LS6500 multipurpose liquid scintillation counter (Beckman Instruments, Fullerton, Calif.). The remaining sample was then dried using a Labconco refrigerated centrivap concentrator (Labconco, Kansas City, Mo.). Dry extracts were reconstituted in 120 μL of HPLC-grade water and centrifuged at 16,000 RCF using an Eppendorf microcentrifuge for 10 min. Prior to HPLC analysis (described below), radioactivity of the concentrated extracts was measured by LSC using 5 μL aliquots. Extraction recovery was then determined by comparing total radioactivity in extracts before and after drying. The remaining extract was then analyzed by HPLC with online radioactivity detection using a Flow Scintillation Analyzer Radiomatic™ 515TR. Radioactivity in the separated components was quantified by integrating the peaks using Flo-One™ Software (Perkin Elmer Life Sciences). […]

[2] = Excretion of administered dose in rat urine and feces; format: in vivo, male Sprague-Dawley rats; conditions: for Total excretion (urine + feces), % of the administered dose: rat
Experimental: Isotopically diluted [^14C]-Compound 1 was administered intravenously to male Sprague-Dawley rats at 50 mg/kg or by oral gavage at 100 mg/kg.
Percent of the administered dose (% AD) for parent drug and each metabolite at each collection period=(% of the total radioactivity in the sample attributed to the metabolite)*(total radioactivity expressed as % of the administered dose, recovered during the corresponding collection period).
The urine and feces of each animal were analyzed for radiolabel content.

[3] = human hepatocytes (Hu775), 1 μM [^14C]-Compound 1, 1 h
[4] = human hepatocytes (Hu775), 1 μM [^14C]-Compound 1, 8 h
[5] = human hepatocytes (Hu775), 1 μM [^14C]-Compound 1, 24 h

C[C@@]1(O)[C@H](O)[C@@H](CO)O[C@H]1n1cnc2c(=O)[nH]c(N)nc21 [2′-C-methyl guanosine, 9-(2-C-methyl-β-D-ribofuranosyl)guanine, reference compound]
metabolites observed in cellular extracts (% of total radioactivity) ([1]; human hepatocytes (Hu759, Hu775), 10 μM [^14C]-2′-C-methyl guanosine, 1 h): 97.1% and 94.9%
metabolites observed in cellular extracts (% of total radioactivity) ([1]; human hepatocytes (Hu759, Hu775), 10 μM [^14C]-2′-C-methyl guanosine, 4 h): 87.3% and 77.3%
metabolites observed in cellular extracts (% of total radioactivity) ([1]; human hepatocytes (Hu759, Hu775), 10 μM [^14C]-2′-C-methyl guanosine, 8 h): 73.9% and 61.4%
metabolites observed in cellular extracts (% of total radioactivity) ([1]; human hepatocytes (Hu759, Hu775), 10 μM [^14C]-2′-C-methyl guanosine, 24 h): 52.4% and 40.2%
metabolites observed in cellular extracts (% of total radioactivity) ([1]; human hepatocytes (Hu759, Hu775), 10 μM [^14C]-Compound 1, 1 h): 3.69% and 3.75%
metabolites observed in cellular extracts (% of total radioactivity) ([1]; human hepatocytes (Hu759, Hu775), 10 μM [^14C]-Compound 1, 4 h): 4.20% and 3.10%
metabolites observed in cellular extracts (% of total radioactivity) ([1]; human hepatocytes (Hu759, Hu775), 10 μM [^14C]-Compound 1, 8 h): 7.52% and 5.89%
metabolites observed in cellular extracts (% of total radioactivity) ([1]; human hepatocytes (Hu759, Hu775), 10 μM [^14C]-Compound 1, 24 h): 10.3% and 9.06%
metabolites observed in medium (% of total radioactivity) ([1]; human hepatocytes (Hu775), 1 μM [^14C]-Compound 1, 0 h): BLD^a
metabolites observed in cellular extracts (% of total radioactivity) [1, 3]: BLD^a
metabolites observed in medium (% of total radioactivity) [1, 3]: BLD
metabolites observed in cellular extracts (% of total radioactivity) [1, 4]: 4.34%
metabolites observed in medium (% of total radioactivity) [1, 4]: 9.20% and 9.22%
metabolites observed in cellular extracts (% of total radioactivity) [1, 5]: 9.05%
metabolites observed in medium (% of total radioactivity) [1, 5]: 39% and 38.7%
metabolites observed in medium (% of total radioactivity) ([1]; human hepatocytes (lots Hu759, Hu775), 10 μM [^14C]-Compound 1, 0 h): BLD^b and BLD
metabolites observed in medium (% of total radioactivity) ([1]; human hepatocytes (lots Hu759, Hu775), 10 μM [^14C]-Compound 1, 1 h): BLD and BLD^a
metabolites observed in medium (% of total radioactivity) ([1]; human hepatocytes (lots Hu759, Hu775), 10 μM [^14C]-Compound 1, 4 h): 1.7% and 1.6%
metabolites observed in medium (% of total radioactivity) ([1]; human hepatocytes (lots Hu759, Hu775), 10 μM [^14C]-Compound 1, 8 h): 4.6% and 7%
metabolites observed in medium (% of total radioactivity) ([1]; human hepatocytes (lots Hu759, Hu775), 10 μM [^14C]-Compound 1, 24 h): 22.1% and 29%
Major metabolites observed in cellular extracts (% of total radioactivity) ([1]; 1 h): 94.6 % of total radioactivity
Major metabolites observed in cellular extracts (% of total radioactivity) ([1]; 8 h): 65.8 % of total radioactivity
Major metabolites observed in cellular extracts (% of total radioactivity) ([1]; 24 h): 41.3 % of total radioactivity
Total excretion (% AD), total (urine + feces) ([2]; IV (1C)): 34.0 % AD
Percent of Dose, Total (urine, feces and liver) ([2]; Oral, 24 h after [14C]Compound 1): 28.3% of Dose
Total excretion (% AD), total (urine + feces) ([2]; PO (2C), urine data estimated): 28.2 % AD
Total excretion (urine + feces), % of the administered dose ([2]; IV dose): 34.0%
Total excretion (urine + feces), % of the administered dose ([2]; PO dose): 28.2%
